BindingDB's records for doi:10.1016/j.bmc.2023.117383 (Fuzhou University, 2023)

Columns and labels:
[1] = molecular target: T1, Crossover junction endonuclease MUS81 (Homo sapiens, UniProt Q96NY9); assay: Binding affinity to human GST-tagged MUS81-ECE2 expressed in Escherichia coli BL21(DE3)Rosetta2 cells assessed as dissociation constant by Surface plasmon resonance analysis
T1 sequence (Q96NY9 whole entry): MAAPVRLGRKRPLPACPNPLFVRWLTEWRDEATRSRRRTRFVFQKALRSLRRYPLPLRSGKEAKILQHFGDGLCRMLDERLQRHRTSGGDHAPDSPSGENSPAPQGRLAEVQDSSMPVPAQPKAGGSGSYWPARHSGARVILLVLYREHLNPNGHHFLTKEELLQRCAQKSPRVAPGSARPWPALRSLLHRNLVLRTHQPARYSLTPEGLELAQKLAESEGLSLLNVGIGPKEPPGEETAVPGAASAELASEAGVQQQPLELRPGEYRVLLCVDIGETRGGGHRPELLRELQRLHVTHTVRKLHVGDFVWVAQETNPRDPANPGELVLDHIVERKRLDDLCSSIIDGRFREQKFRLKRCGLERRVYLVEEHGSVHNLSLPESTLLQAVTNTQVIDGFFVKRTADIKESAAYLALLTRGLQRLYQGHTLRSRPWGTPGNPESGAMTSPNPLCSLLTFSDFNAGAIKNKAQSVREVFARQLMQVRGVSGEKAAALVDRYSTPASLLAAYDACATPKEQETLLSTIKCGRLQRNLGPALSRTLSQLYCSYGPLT

[2] = molecular target: T1, Crossover junction endonuclease MUS81; assay: Binding affinity to human GST-tagged MUS81-ECE1 expressed in Escherichia coli BL21(DE3)Rosetta2 cells assessed as dissociation constant by Surface plasmon resonance analysis

Kd [1]: 6.1 nM
Kd [2]: 6.1 nM
SMILES: O=C(N/N=C/c1cc(O)c(O)cc1O)c1cc2ccccc2cc1O
